In one assay the target is T1, JAK2 (Homo sapiens, UniProt O60674).
T1 construct: host or cells: baculovirus expression system
The experiment in a line: Recombinant Human JAK2 Kinase Assay (TRF). The format is biochemical. The conditions noted are these: read-out: JAK2 Potency. Summed up:
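Baculovirus-expressed JAK2 (15 ng/ml) phosphorylated a biotinylated 15-mer peptide captured on Neutravidin-coated plates, in 20 mM HEPES pH 7.2 with 0.2 μM ATP, 1 mM MnCl2, 0.1% BSA and 2.5% DMSO. Reaction ran 20 min at room temperature; phosphopeptide was detected by time-resolved fluorescence with Eu-N1-labelled PY100 antibody.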

In the next assay the target is T2, ALK (Homo sapiens, UniProt Q9UM73).
T2 construct: host or cells: baculovirus expression system
T2 sequence (Q9UM73 19-1620): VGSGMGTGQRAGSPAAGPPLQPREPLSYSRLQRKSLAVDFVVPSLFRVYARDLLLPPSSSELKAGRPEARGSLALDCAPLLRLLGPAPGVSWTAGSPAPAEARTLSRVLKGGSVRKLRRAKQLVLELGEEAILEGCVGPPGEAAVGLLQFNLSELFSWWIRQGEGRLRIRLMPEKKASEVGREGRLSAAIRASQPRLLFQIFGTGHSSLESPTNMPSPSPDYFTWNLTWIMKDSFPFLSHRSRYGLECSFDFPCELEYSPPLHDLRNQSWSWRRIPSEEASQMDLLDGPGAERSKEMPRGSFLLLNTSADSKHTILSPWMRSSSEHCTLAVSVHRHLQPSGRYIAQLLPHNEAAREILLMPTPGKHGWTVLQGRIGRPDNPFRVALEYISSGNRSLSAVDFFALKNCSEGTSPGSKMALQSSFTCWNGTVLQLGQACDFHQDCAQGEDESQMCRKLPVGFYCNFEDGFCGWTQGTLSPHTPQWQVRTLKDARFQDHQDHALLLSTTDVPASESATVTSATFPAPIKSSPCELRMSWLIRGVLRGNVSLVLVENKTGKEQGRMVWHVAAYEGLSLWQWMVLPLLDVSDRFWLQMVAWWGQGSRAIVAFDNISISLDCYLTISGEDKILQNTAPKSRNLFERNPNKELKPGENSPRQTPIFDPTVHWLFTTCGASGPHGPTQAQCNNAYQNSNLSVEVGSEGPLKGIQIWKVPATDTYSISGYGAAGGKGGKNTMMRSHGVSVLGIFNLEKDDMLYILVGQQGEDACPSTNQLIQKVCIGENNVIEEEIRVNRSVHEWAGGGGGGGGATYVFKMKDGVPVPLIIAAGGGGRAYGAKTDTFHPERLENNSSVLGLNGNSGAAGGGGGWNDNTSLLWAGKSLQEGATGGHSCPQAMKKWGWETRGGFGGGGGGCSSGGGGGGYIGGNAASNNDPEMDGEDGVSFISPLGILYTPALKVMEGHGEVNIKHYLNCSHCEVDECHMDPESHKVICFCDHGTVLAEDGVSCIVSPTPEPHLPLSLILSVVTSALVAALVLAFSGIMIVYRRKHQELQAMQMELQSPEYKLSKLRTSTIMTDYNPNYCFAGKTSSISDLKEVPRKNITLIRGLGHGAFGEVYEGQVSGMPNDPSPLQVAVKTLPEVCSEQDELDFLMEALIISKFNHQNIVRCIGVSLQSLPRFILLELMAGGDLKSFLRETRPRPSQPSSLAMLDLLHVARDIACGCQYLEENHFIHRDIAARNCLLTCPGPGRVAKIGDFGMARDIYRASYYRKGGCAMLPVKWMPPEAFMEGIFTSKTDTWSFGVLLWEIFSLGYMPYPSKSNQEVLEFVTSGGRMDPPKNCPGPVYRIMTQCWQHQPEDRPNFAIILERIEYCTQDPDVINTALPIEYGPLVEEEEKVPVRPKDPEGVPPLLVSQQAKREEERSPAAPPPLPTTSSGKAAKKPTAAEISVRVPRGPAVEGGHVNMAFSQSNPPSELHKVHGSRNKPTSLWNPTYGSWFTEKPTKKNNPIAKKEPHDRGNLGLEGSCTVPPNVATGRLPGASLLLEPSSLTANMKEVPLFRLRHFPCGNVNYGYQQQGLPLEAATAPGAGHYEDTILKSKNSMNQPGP
The experiment in a line: ALK Kinase Assay (ELISA/TRF, PLC-γ substrate). The format is biochemical. The conditions noted are these: read-out: ALK Potency. In short, it runs like this: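 PLC-γ substrate coated at 10 μg/mL in TBS; reaction started with 30 ng/ml ALK, run 15 min at 37° C. Phosphoproduct detected by TRF with Eu-N1-labeled PT66 anti-phosphotyrosine antibody. IC50 from sigmoidal variable-slope fit of percent inhibition versus log concentration.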
In general terms: In an ELISA, binding on a coated surface is turned into a signal by an enzyme label.

The mark [1] stands for this setting: JAK2 kinase inhibition, 0.2 μM ATP.
The mark [2] stands for this setting: ALK kinase inhibition, 1 μM ATP.

Where two headings read alike, the source gives them in different places.

T1 sequence (O60674 whole entry): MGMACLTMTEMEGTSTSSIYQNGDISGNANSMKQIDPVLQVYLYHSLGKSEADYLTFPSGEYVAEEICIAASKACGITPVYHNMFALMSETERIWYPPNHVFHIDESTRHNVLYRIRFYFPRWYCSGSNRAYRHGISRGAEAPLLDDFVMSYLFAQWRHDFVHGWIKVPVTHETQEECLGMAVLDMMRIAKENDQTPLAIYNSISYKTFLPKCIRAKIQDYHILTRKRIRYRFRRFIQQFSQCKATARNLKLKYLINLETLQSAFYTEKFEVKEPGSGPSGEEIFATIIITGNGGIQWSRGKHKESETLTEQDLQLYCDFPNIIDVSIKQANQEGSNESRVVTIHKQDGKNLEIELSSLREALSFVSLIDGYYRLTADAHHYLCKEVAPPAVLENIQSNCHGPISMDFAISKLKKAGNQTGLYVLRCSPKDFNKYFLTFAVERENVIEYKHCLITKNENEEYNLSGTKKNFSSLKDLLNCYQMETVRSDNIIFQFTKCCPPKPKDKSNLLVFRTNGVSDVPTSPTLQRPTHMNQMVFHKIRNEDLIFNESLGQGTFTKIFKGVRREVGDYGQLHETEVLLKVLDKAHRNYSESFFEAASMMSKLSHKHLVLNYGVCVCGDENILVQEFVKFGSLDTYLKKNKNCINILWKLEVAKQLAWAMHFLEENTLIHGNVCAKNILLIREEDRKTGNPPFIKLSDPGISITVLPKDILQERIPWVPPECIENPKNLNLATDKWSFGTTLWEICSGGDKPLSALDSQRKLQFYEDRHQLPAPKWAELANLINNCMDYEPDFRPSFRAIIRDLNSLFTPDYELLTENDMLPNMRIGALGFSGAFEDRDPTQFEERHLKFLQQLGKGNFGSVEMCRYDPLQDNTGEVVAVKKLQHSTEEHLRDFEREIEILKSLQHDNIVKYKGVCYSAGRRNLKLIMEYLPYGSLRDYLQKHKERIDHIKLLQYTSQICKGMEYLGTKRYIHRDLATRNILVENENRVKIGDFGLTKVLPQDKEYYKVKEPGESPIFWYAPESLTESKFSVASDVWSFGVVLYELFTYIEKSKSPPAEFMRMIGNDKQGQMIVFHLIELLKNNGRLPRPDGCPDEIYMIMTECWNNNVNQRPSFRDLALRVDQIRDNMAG

Regarding `CCN1CCOC(c2ccc(Nc3ncc4ccc(-c5cc(Cl)ccc5OC)n4n3)cc2)C1` (stereo not shown) [Example 253, [7-(5-Chloro-2-methoxy-phenyl)-pyrrolo[2,1-f][1,2,4]triazin-2-yl]-[4-(4-ethyl-morpholin-2-yl)-phenyl]-amine], the IC50 at JAK2 (JAK2 Kinase Inhibition) and on ALK (ALK Kinase Inhibition) was < 100 nM each time.

For the compound `COc1cc(N2CCC[C@@H](C(=O)N3CCN(C)CC3)C2)ccc1Nc1ncc2ccc(-c3ccccc3N(C)S(C)(=O)=O)n2n1` [Example 462, N-[2-(2-{2-Methoxy-4-[(R)-3-(4-methyl-piperazine-1-carbonyl)-piperidin-1-yl]-phenylamino}-pyrrolo[2,1-f][1,2,4]triazin-7-yl)-phenyl]-N-methyl-methanesulfonamide], the IC50 is 100 to 1000 nM on JAK2 (JAK2 Kinase Inhibition) and < 100 nM on ALK (ALK Kinase Inhibition).

In the case of `CN1CCN(C)C(c2ccc(Nc3ncc4ccc(-c5cccc(S(=O)(=O)NC(C)(C)C)c5)n4n3)cc2)C1` (stereo not shown) [Example 1567, N-tert-Butyl-3-{2-[4-(1,4-dimethyl-piperazin-2-yl)-phenylamino]-pyrrolo[2,1-f][1,2,4]triazin-7-yl}-benzenesulfonamide], the IC50 at JAK2 (JAK2 Kinase Inhibition) is < 100 nM; on ALK (ALK Kinase Inhibition) it was 100 to 1000 nM.

On to `CN1CCN(c2cccc(Nc3ncc4ccc(-c5cccc(COC(C)(C)C)c5)n4n3)c2)CC1` [Example 1558, [7-(3-tert-Butoxymethyl-phenyl)-pyrrolo[2,1-f][1,2,4]triazin-2-yl]-[3-(4-methyl-piperazin-1-yl)-phenyl]-amine], for which the IC50 on JAK2 (JAK2 Kinase Inhibition) is < 100 nM; at ALK (ALK Kinase Inhibition), 100 to 1000 nM.

Consider `CN1CCC(c2ccc(Nc3ncc4ccc(-c5cccc(Cl)c5)n4n3)cc2)CC1` [Example 1131, [7-(3-Chloro-phenyl)-pyrrolo[2,1-f][1,2,4]triazin-2-yl]-[4-(1-methyl-piperidin-4-yl)-phenyl]-amine], for which the IC50 on JAK2 (setting [1]) and on ALK (setting [2]) was < 100 nM each time.

For `CCN1CCOC(c2ccc(Nc3ncc4ccc(-c5cccc(NS(C)(=O)=O)c5)n4n3)cc2)C1` (stereo not shown) [Example 651, N-(3-{2-[4-(4-Ethyl-morpholin-2-yl)-phenylamino]-pyrrolo[2,1-f][1,2,4]triazin-7-yl}phenyl)methanesulfonamide], the IC50 on JAK2 (setting [1]) is < 100 nM; at ALK (setting [2]), 100 to 1000 nM.

In the case of `COc1ccc(Cl)cc1-c1ccc2cnc(Nc3ccc(N4CCCC(N5CCOCC5)C4)cc3)nn12` (stereo not shown) [Example 344, [7-(5-Chloro-2-methoxy-phenyl)-pyrrolo[2,1-f][1,2,4]triazin-2-yl]-[4-(3-morpholin-4-yl-piperidin-1-yl)-phenyl]-amine], the IC50 at JAK2 (JAK2 Kinase Inhibition) and on ALK (ALK Kinase Inhibition) was < 100 nM in each case.

On to `CC(C)(C)OC(=O)c1ccc(-c2ccc3cnc(Nc4ccc(N5CCOCC5)cc4)nn23)cc1` [Example 44, 4-[2-(4-Morpholin-4-yl-phenylamino)-pyrrolo[2,1-f][1,2,4]triazin-7-yl]-benzoic acid tert-butyl ester], for which the values for the IC50 on JAK2 (JAK2 Kinase Inhibition) and on ALK (ALK Kinase Inhibition) were < 100 nM and > 10000 nM, respectively.

With `CC(=O)Nc1cccc(Nc2ncc3ccc(-c4cccc(COC(C)(C)C)c4)n3n2)c1` [Example 1559, N-{3-[7-(3-tert-Butoxymethyl-phenyl)-pyrrolo[2,1-f][1,2,4]triazin-2-ylamino]-phenyl}-acetamide], the IC50 was < 100 nM on JAK2 (JAK2 Kinase Inhibition) and 1000 to 10000 nM at ALK (ALK Kinase Inhibition).

Take `COc1ccc(-c2ccc3cnc(Nc4ccc(N5CCN(CC(N)=O)CC5)c(F)c4)nn23)cn1` [Example 1415, 2-(4-{2-Fluoro-4-[7-(6-methoxy-pyridin-3-yl)-pyrrolo[2,1-f][1,2,4]triazin-2-ylamino]-phenyl}-piperazin-1-yl)-acetamide]: the IC50 at JAK2 (JAK2 Kinase Inhibition) was < 100 nM; on ALK (ALK Kinase Inhibition), 100 to 1000 nM.

As for `CN1CCN(c2ccc(Nc3ncc4ccc(-c5cccc(S(C)(=O)=O)c5)n4n3)cc2)CC1` [Example 82, [7-(3-Methanesulfonyl-phenyl)-pyrrolo[2,1-f][1,2,4]triazin-2-yl]-[4-(4-methyl-piperazin-1-yl)-phenyl]-amine], the IC50 was < 100 nM at JAK2 (JAK2 Kinase Inhibition) and 100 to 1000 nM on ALK (ALK Kinase Inhibition).

As for `CC(C)(C)NS(=O)(=O)c1cccc(-c2ccc3cnc(Nc4ccc5c(c4)C(N)C(O)C5)nn23)c1` (stereo not shown) [Example 680, 3-[2-(3-Amino-2-hydroxy-indan-5-ylamino)-pyrrolo[2,1-f][1,2,4]triazin-7-yl]-N-tert-butyl-benzenesulfonamide], the figures for the IC50 on JAK2 (setting [1]) and at ALK (setting [2]) were < 100 nM and 100 to 1000 nM, respectively.

Regarding `COc1ccc(-c2ccc3cnc(Nc4ccc(C5CCN(CC(N)=O)CC5)cc4OC)nn23)c(N(C)S(C)(=O)=O)c1` [Example 1273, 2-[4-(4-{7-[2-(Methanesulfonyl-methyl-amino)-4-methoxy-phenyl]-pyrrolo[2,1-f][1,2,4]triazin-2-ylamino}-3-methoxy-phenyl)-piperidin-1-yl]-acetamide], the results for the IC50 at JAK2 (setting [1]) and on ALK (setting [2]) were 1000 to 10000 nM and < 100 nM, respectively.

With `COc1ccccc1-c1ccc2cnc(Nc3ccc4c(c3)OCC(=O)N4C)nn12` [Example 647, 7-[7-(2-Methoxy-phenyl)-pyrrolo[2,1-f][1,2,4]triazin-2-ylamino]-4-methyl-4H-benzo[1,4]oxazin-3-one], the results for the IC50 on JAK2 (setting [1]) and at ALK (setting [2]) were < 100 nM and 100 to 1000 nM, respectively.

Turning to `COc1ccccc1-c1ccc2cnc(Nc3ccc(OCCN4CCOCC4)cc3)nn12` [Example 128, [7-(2-Methoxy-phenyl)-pyrrolo[2,1-f][1,2,4]triazin-2-yl]-[4-(2-morpholin-4-yl-ethoxy)-phenyl]-amine], the IC50 at JAK2 (JAK2 Kinase Inhibition) and on ALK (ALK Kinase Inhibition) was < 100 nM throughout.

For the compound `NC(=O)CN1CCC(c2ccc(Nc3ncc4ccc(-c5cccc(N6CCCS6(=O)=O)c5)n4n3)cc2)CC1` [Example 1512, 2-{4-[4-({7-[3-(1,1-Dioxido-1,2-thiazolidin-2-yl)phenyl]pyrrolo[2,1-f][1,2,4]triazin-2-yl}amino)phenyl]piperidin-1-yl}acetamide], the IC50 on JAK2 (JAK2 Kinase Inhibition) is < 100 nM; on ALK (ALK Kinase Inhibition) it was 100 to 1000 nM.

`COc1ccc(-c2ccc3cnc(Nc4ccc(C5CCN(CC(N)=O)CC5)c(NC(C)=O)c4)nn23)cn1` [Example 939, 2-(4-{2-Acetylamino-4-[7-(6-methoxy-pyridin-3-yl)-pyrrolo[2,1-f][1,2,4]triazin-2-ylamino]-phenyl}-piperidin-1-yl)-acetamide]: the IC50 was < 100 nM on JAK2 (setting [1]) and 100 to 1000 nM on ALK (setting [2]).

Turning to `COC[C@H](O)CN1CCN(Cc2ccc(Nc3ncc4ccc(-c5ccccc5N(C)S(C)(=O)=O)n4n3)c(OC)c2)CC1` [Example 1225, N-[2-(2-{4-[4-((R)-2-Hydroxy-3-methoxy-propyl)-piperazin-1-ylmethyl]-2-methoxy-phenylamino}-pyrrolo[2,1-f][1,2,4]triazin-7-yl)-phenyl]-N-methyl-methanesulfonamide], the IC50 is 1000 to 10000 nM on JAK2 (setting [1]) and < 100 nM on ALK (setting [2]).

`CN1CCN(c2cccc(Nc3ncc4ccc(NCc5ccncc5)n4n3)c2)CC1` [Example 1167, N(2)-[3-(4-Methyl-piperazin-1-yl)-phenyl]-N(7)-pyridin-4-ylmethyl-pyrrolo[2,1-f][1,2,4]triazine-2,7-diamine]: the values for the IC50 on JAK2 (setting [1]) and at ALK (setting [2]) were 100 to 1000 nM and > 10000 nM, respectively.

For `COc1ccc(-c2ccc3cnc(Nc4ccc(C5=CCN(CC(N)=O)CC5)c(C(F)(F)F)c4)nn23)cn1` [Example 953, 2-(4-{4-[7-(6-Methoxy-pyridin-3-yl)-pyrrolo[2,1-f][1,2,4]triazin-2-ylamino]-2-trifluoromethyl-phenyl}-3,6-dihydro-2H-pyridin-1-yl)-acetamide], the IC50 on JAK2 (setting [1]) was < 100 nM; at ALK (setting [2]), 1000 to 10000 nM.

As for `COc1ccc(-c2ccn3nc(Nc4ccc(N5CCN(C)CC5)cc4)ncc23)cc1` [Example 724, [5-(4-Methoxy-phenyl)-pyrrolo[2,1-f][1,2,4]triazin-2-yl]-[4-(4-methyl-piperazin-1-yl)-phenyl]-amine], the IC50 at JAK2 (setting [1]) and at ALK (setting [2]) was > 10000 nM in each case.

Consider `CS(=O)(=O)c1cccc(-c2ccc3cnc(Nc4ccc(CN5CCS(=O)(=O)CC5)cc4)nn23)c1` [Example 1049, [4-(1,1-Dioxo-1$1(6)-thiomorpholin-4-ylmethyl)-phenyl]-[7-(3-methanesulfonyl-phenyl)-pyrrolo[2,1-f][1,2,4]triazin-2-yl]-amine], for which the IC50 is < 100 nM on JAK2 (setting [1]) and 1000 to 10000 nM on ALK (setting [2]).

Consider `CC(C)(C)NS(=O)(=O)c1cccc(-c2ccc3cnc(Nc4ccc5ncn(CCN6CCOCC6)c5c4)nn23)c1` [Example 1326, N-tert-Butyl-3-{2-[3-(2-morpholin-4-yl-ethyl)-3H-benzimidazol-5-ylamino]-pyrrolo[2,1-f][1,2,4]triazin-7-yl}-benzenesulfonamide], for which the IC50 on JAK2 (setting [1]) is < 100 nM; on ALK (setting [2]), 100 to 1000 nM.

Regarding `Cn1cc(-c2ccc3cnc(Nc4ccc(N5CCN(CCO)CC5)cc4)nn23)cn1` [Example 1181, 2-(4-{4-[7-(1-Methyl-1H-pyrazol-4-yl)-pyrrolo[2,1-f][1,2,4]triazin-2-ylamino]-phenyl}-piperazin-1-yl)-ethanol], the figures for the IC50 on JAK2 (setting [1]) and on ALK (setting [2]) were < 100 nM and 100 to 1000 nM, respectively.

As to `CN1CCN(c2ccc(Nc3ncc4ccc(-c5cnccc5NS(C)(=O)=O)n4n3)cc2)CC1` [Example 1218, N-(3-{2-[4-(4-Methyl-piperazin-1-yl)-phenylamino]-pyrrolo[2,1-f][1,2,4]triazin-7-yl}-pyridin-4-yl)-methanesulfonamide], the IC50 lay within 100 to 1000 nM at JAK2 (setting [1]) and 1000 to 10000 nM at ALK (setting [2]).

In the case of `CC(C)(C)NS(=O)(=O)c1cccc(-c2ccc3cnc(Nc4cccc(-n5cccn5)c4)nn23)c1` [Example 1386, N-tert-Butyl-3-[2-(3-pyrazol-1-yl-phenylamino)-pyrrolo[2,1-f][1,2,4]triazin-7-yl]-benzenesulfonamide], the IC50 at JAK2 (JAK2 Kinase Inhibition) is < 100 nM; on ALK (ALK Kinase Inhibition), 1000 to 10000 nM.
